Data as given in paper PMC9785280, “Synthesis, Antiproliferative Evaluation and QSAR Analysis of Novel Halogen- and Amidino-Substituted Benzothiazoles and Benzimidazoles” (International Journal of Molecular Sciences, 2022).

Assays:
[1] = tested on: MDCK1 (Madin–Darby canine kidney) cells; experiment: MTT antiproliferative assay, non-tumor MDCK1 cells; type: cell-based; settings: Canis lupus familiaris, MDCK1, 72 h, mean ± SD of three independent experiments, normal cells
Experimental: (§1) The growth inhibition activity was assessed according to the slightly modified procedure performed at the National Cancer Institute, Developmental Therapeutics Program.
(§2) Examined compounds were dissolved in DMSO (1 × 10^−2 M). The experiments were carried out on seven human tumor cell lines and two normal cell lines. The following cell lines were used: HeLa (human cervical adenocarcinoma; purchased from ATCC), CaCo-2 (human colorectal adenocarcinoma), HuT78 (T-cell lymphoma), THP-1 (acute monocytic leukemia), SW620 (colorectal adenocarcinoma, metastatic), MDA-MB-231 (human breast adenocarcinoma), HL60 (promyelocytic leukemia cell line), foreskin fibroblast cells (BJ) and MDCK1 (Madine–Darby canine kidney fibroblast like cells). MDCK1 cells were used between 24 and 26 passages.
(§3) Adherent cells were cultured in the Dulbecco’s modified Eagle medium—DMEM (Gibco, EU) supplemented with 10 % heat-inactivated fetal bovine serum (FBS, Gibco, EU), 2 mM glutamine, and 100 U/0.1 mg penicillin/streptomycin. Cells on suspension were cultured in RPMI 1640 (Gibco, EU) medium supplemented with 10 % FBS (Gibco, EU), 2 mM glutamine, 1 mM sodium pyruvate, 10 mM HEPES. Cells were grown in humidified atmosphere under the conditions of 37 °C/5% of CO2 gas in the CO2 incubator (IGO 150 CELLlife^TM, JOUAN, Thermo Fisher Scientific, Waltham, MA, USA). A erythrosin B (Sigma-Aldrich, St. Louis, MO, USA) dye exclusion method was used to assess cell viability before plating.
(§4) Adherent cells (HeLa, CaCo-2, MCF-7 and MDCK-1) were plated in 96-well flat bottom plates (Greiner, Frickenhausen, Austria) at a concentration of 2 × 10^4 cells/mL. Suspension cells (THP-1 and HuT78) were plated in 96-well microtiter plates (Sarstead, Newton, USA) at a concentration of 1 × 10^5 cells/mL. Twenty-four hours later, cells were treated with test agents in […] 10-fold dilutions ([…] to 10^−4 M) and incubated for further 72 h. Working dilutions were freshly prepared on the day of testing. The solvent was also tested for eventual inhibitory activity by adjusting its concentration to be the same as in working concentrations. After 72 h of incubation, the cell growth rate was evaluated by performing the MTT assay, which detects dehydrogenase activity in viable cells. For this purpose, upon completion of the incubation period, growth medium was discarded and 50 μL of MTT was added to each well at a concentration of 5 mg/mL. After four hours of incubation at 37 °C, water insoluble MTT-formazan crystals were dissolved in 150 μL of dimethyl-sulfoxide (DMSO) for adherent cells, and in 10 % SDS with 0.01 M/L HCl for cells grown in suspension. The absorbance (OD, optical density) was measured on a microplate reader (iMark, BIO RAD, Hercules, CA, USA) at 595 nm.
(§5) Percent of life cells was calculated as follows: % = OD (sample)–OD (background)/OD (control)–OD (background) × 100.
(§6) Optical density (OD) of background for adherent cells is the OD of MTT solution and DMSO; OD (background) for suspension cells is OD of the culture medium with MTT and 10% SDS with 0.01 M/L HCl; OD (control) is the OD of the cells growth without tested compounds.
(§7) Calculation of GI50 value curves and QC analysis is performed by using the Excel tools and GraphPadPrism software (La Jolla, CA), v. 5.03. Briefly, individual concentration effect curves are generated by plotting the logarithm of the concentration of tested compounds(X) vs. corresponding percent inhibition values (Y) using least squares fit. The best fit GI50 values are calculated using Log (inhibitor) versus normalized response—Variable slope equation, where Y Ľ 100/(1 ţ 10 ((LogIC50 _ X) * HillSlope)). QC criteria parameters (Z0, S:B, R2, HillSlope) were checked for every GI50 curve.

[2] = tested on: human fibroblasts (BJ); experiment: MTT antiproliferative assay, normal BJ fibroblasts; type: cell-based; settings: Homo sapiens, Fibroblast, 72 h, MTT, mean ± SD of three independent experiments; normal cells
Experimental: as §1, §2, §3, §4, §5, §6, §7

[3] = tested on: HeLa (cervical adenocarcinoma) cells; experiment: MTT antiproliferative assay, HeLa; type: cell-based; settings: Homo sapiens, 72 h, mean ± SD of three independent experiments
Experimental: as §1, §2, §3, §4, §5, §6, §7

[4] = tested on: CaCo-2 (colon adenocarcinoma) cells; experiment: MTT antiproliferative assay, CaCo-2; type: cell-based, human; settings: for IC50: Homo sapiens, Caco-2, 72 h, MTT, mean ± SD of three independent experiments; for SI (BJ) CaCo-2: SI = IC50 BJ / IC50 CaCo-2
Experimental: as §1, §2, §3, §4, §5, §6
as §7, with “The best fit GI50 values are calculated using Log (inhibitor) versus normalized response—Variable slope equation, where Y Ľ 100/(1 ţ 10 ((LogIC50 _ X) * HillSlope)).” left out

[5] = tested on: HuT78 (T-cell lymphoma) cells; experiment: MTT antiproliferative assay, HuT78; type: cell-based, human; settings: for IC50: Homo sapiens, HuT78, 72 h, 72 h, MTT, mean ± SD of three independent experiments; for SI (BJ) HuT78: SI = IC50 BJ / IC50 HuT78; for SI (MDCK) HuT78: SI = IC50 MDCK1 / IC50 HuT78
Experimental: as §1, §2, §3, §4, §5, §6, §7

| Compound | IC50 [1] [µM] | IC50 [2] [µM] | IC50 [3] [µM] | IC50 [4] [µM] | IC50 [5] [µM] | SI (BJ) HuT78 [5] | melting point [°C] | SI (BJ) CaCo-2 [4] | SI (MDCK) CaCo-2 ([4]; SI = IC50 MDCK1 / IC50 CaCo-2) | SI (MDCK) HuT78 [5] |
| --- | --- | --- | --- | --- | --- | --- | --- | --- | --- | --- |
| O=C(COc1ccc(-c2nc3ccc(F)cc3s2)cc1F)c1ccccc1 [16b, 6-Fluoro-2-(3-fluoro-4-(2-oxo-2-phenylethoxy)phenyl)benzothiazole] | 25.8 ± 9.4 | > 100 | > 100 | 89.3 ± 15.8 | 69.8 ± 15.5 | 1.43 | 148 to 152 | – | – | – |
| COc1cc(-c2nc3ccc(F)cc3s2)ccc1OCC(=O)c1ccccc1 [16c, 6-Fluoro-2-(3-methoxy-4-(2-oxo-2-phenylethoxy)phenyl)benzothiazole] | 6.8 ± 6.2 | > 100 | > 100 | > 100 | > 100 | – | 178 to 181 | – | – | – |
| O=C(COc1ccc(-c2nc3ccccc3s2)cc1)c1ccccc1 [17a, 2-(4-(2-Oxo-2-phenylethoxy)phenyl)benzothiazole] | > 100 | > 100 | > 100 | > 100 | > 100 | – | 150 to 155 | – | – | – |
| O=C(COc1ccc(-c2nc3ccccc3s2)cc1F)c1ccccc1 [17b, 2-(3-Fluoro-4-(2-oxo-2-phenylethoxy)phenyl)benzothiazole] | > 100 | > 100 | > 100 | > 100 | > 100 | – | 174 to 177 | – | – | – |
| COc1cc(-c2nc3ccccc3s2)ccc1OCC(=O)c1ccccc1 [17c, 2-(3-Methoxy-4-(2-oxo-2-phenylethoxy)phenyl)benzothiazole] | 78 ± 27.8 | > 100 | > 100 | > 100 | > 100 | – | 184 to 186 | – | – | – |
| Fc1cc(-c2nc3ccc(Cl)cc3s2)ccc1OCc1ccccn1 [18b] | 29.8 ± 17.7 | > 100 | > 100 | > 100 | > 100 | – | 211 to 215 | – | – | – |
| COc1cc(-c2nc3ccc(Cl)cc3s2)ccc1OCc1ccccn1 [18c] | 41.4 ± 8.1 | > 100 | 67.3 ± 7.8 | > 100 | 55.6 ± 34.6 | – | 173 to 176 | – | – | – |
| Fc1ccc2nc(-c3ccc(OCc4ccccn4)cc3)sc2c1 [19a] | 1.1 ± 0.2 | > 100 | > 100 | > 100 | > 100 | – | 165 to 170 | – | – | – |
| Fc1ccc2nc(-c3ccc(OCc4ccccn4)c(F)c3)sc2c1 [19b] | 16.3 ± 11.5 | > 100 | > 100 | > 100 | > 100 | – | 190 to 195 | – | – | – |
| COc1cc(-c2nc3ccc(F)cc3s2)ccc1OCc1ccccn1 [19c] | 1.1 ± 0.2 | > 100 | > 100 | > 100 | > 100 | – | 152 to 156 | – | – | – |
| c1ccc(COc2ccc(-c3nc4ccccc4s3)cc2)nc1 [20a, 2-(4-(Pyridin-2-ylmethoxy)phenyl)benzothiazole] | 65.7 ± 11.8 | > 100 | > 100 | > 100 | > 100 | – | 132 to 136 | – | – | – |
| Fc1cc(-c2nc3ccccc3s2)ccc1OCc1ccccn1 [20b] | 94.2 ± 18.4 | > 100 | > 100 | 28.7 ± 16.7 | > 100 | – | 136 to 142 | 3.48 | 3.28 | – |
| COc1cc(-c2nc3ccccc3s2)ccc1OCc1ccccn1 [20c] | 85.9 ± 15.7 | > 100 | > 100 | 89.2 ± 16.8 | 64.7 ± 11.3 | 1.55 | 110 to 115 | 1.12 | – | 1.33 |
| Clc1ccc2nc(-c3ccc(OCc4c[nH]nn4)cc3)sc2c1 [21a, 6-Chloro-2-(4-((1H-1,2,3-triazol-4-yl)methoxy)phenyl)benzothiazole] | 12.6 ± 4.8 | > 100 | > 100 | > 100 | 6.8 ± 6.2 | 14.7 | 220 to 223 | – | – | 1.85 |
| Fc1cc(-c2nc3ccc(Cl)cc3s2)ccc1OCc1c[nH]nn1 [21b, 6-Chloro-2-(3-fluoro-4-((1H-1,2,3-triazol-4-yl)methoxy)phenyl)benzothiazole] | 10.1 ± 4.5 | 84.1 ± 24.7 | > 100 | > 100 | 3.6 ± 3.1 | 23.36 | 205 to 209 | – | – | 2.8 |
| COc1cc(-c2nc3ccc(Cl)cc3s2)ccc1OCc1c[nH]nn1 [21c, 6-Chloro-2-(3-methoxy-4-((1H-1,2,3-triazol-4-yl)methoxy)phenyl)benzothiazole] | 43.2 ± 12.4 | > 100 | > 100 | > 100 | 24.3 ± 6.5 | 4.11 | 183 to 188 | – | – | 1.78 |
| Fc1ccc2nc(-c3ccc(OCc4c[nH]nn4)cc3)sc2c1 [22a, 6-Fluoro-2-(4-((1H-1,2,3-triazol-4-yl)methoxy)phenyl)benzothiazole] | 1.1 ± 0.2 | > 100 | 54.5 ± 29.4 | 73.5 ± 4.5 | 14.9 ± 10.8 | 6.71 | 212 to 215 | – | – | – |
| Fc1ccc2nc(-c3ccc(OCc4c[nH]nn4)c(F)c3)sc2c1 [22b, 6-Fluoro-2-(3-fluoro-4-((1H-1,2,3-triazol-4-yl)methoxy)phenyl)benzothiazole] | 1 | 86.4 ± 20.9 | 50.6 ± 19.3 | > 100 | 9.1 ± 2.8 | 9.49 | 177 to 180 | – | – | – |
| COc1cc(-c2nc3ccc(F)cc3s2)ccc1OCc1c[nH]nn1 [22c, 6-Fluoro-2-(3-methoxy-4-((1H-1,2,3-triazol-4-yl)methoxy)phenyl)benzothiazole] | 0.7 ± 0.3 | > 100 | > 100 | > 100 | 38.1 ± 23.4 | 2.62 | 196 to 199 | – | – | – |
| c1ccc2sc(-c3ccc(OCc4c[nH]nn4)cc3)nc2c1 [23a, 2-(4-((1H-1,2,3-triazol-4-yl)methoxy)phenyl)benzothiazole] | 40.7 ± 5.7 | > 100 | 52.4 ± 18.4 | 95.6 ± 6.6 | 19 ± 4 | 5.26 | 204 to 207 | – | – | 2.14 |
